The Kd is a measure of binding affinity in units of concentration. A high value points to lower affinity.

The results in this text go back to patent US7601489B2, “Manganese ion regulation of reverse transcriptase activity and methods of modulating same” (The Johns Hopkins University, priority 2002, dated 2009).

The target of one experiment is Ty1 VLPs (Saccharomyces cerevisiae, UniProt P47098). On the procedure:
(§1) VLP isolation and analysis. Yeast cells harboring pGTy1-H3-mhis3AI were grown in 2% galactose at 22° C. for approximately 24 hr. Cell pellets from these 0.5 L cultures were resuspended in 5 ml buffer B (Eichinger and Boeke, Cell 54: 955-966, 1988, which is incorporated herein by reference) and VLPs were isolated. […] Reactions were set up on ice, carried out for 1 hr at 22° C. and kept on ice while being spotted onto DE81 anion-exchange paper (Whatman International Ltd.; Maidstone, England).

The target of a further experiment is T1, wild-type Ty1 RT (Saccharomyces cerevisiae, UniProt P47098).
T1 sequence (P47098 1218-1755 limits assumed): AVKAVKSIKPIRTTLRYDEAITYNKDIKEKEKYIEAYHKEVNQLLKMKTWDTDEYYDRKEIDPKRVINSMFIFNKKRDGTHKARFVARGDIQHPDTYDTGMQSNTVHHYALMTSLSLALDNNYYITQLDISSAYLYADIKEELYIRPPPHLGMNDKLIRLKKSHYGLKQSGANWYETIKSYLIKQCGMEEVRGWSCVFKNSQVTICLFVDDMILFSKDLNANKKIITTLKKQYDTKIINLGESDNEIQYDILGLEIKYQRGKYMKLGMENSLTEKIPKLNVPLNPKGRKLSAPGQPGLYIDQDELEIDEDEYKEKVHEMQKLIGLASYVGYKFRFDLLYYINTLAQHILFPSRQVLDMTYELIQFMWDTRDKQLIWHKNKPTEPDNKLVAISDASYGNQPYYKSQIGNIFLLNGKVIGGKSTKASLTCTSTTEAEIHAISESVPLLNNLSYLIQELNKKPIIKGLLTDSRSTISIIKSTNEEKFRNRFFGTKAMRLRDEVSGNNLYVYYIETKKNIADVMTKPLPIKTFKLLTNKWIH
As to the kind of experiment: biochemical. Here is the method:
as §1
(§2) Protein purification and analysis. Recombinant Ty1 RT (Wilhelm et al., supra, 2000) containing a cleavable N-terminal GST-tag was expressed in E. coli and purified first by affinity chromatography and then by ion exchange chromatography, as described for HIV-1 RT (Le Grice et al., Meth. Enzymol. 262: 130-44, 1995, which is incorporated herein by reference). The GST-tagged protein was eluted from a Glutathione Sepharose 4B™ gel (Amersham) gravity column with buffer (50 mM HEPES-KOH, pH 7.8, 200 mM KCl, 10% glycerol and 2 mM DTT) containing 30 mM reduced glutathione. 50 mM HEPES-KOH, pH 7.0 with 10% glycerol was added to the protein solution to lower the pH to 7.1 and the KCl concentration to 25 mM. The recombinant Ty1 RT was further purified over a Resource S™ (Amersham) cation-exchange column using a linear KCl gradient (25-500 mM). […] Purified hetero-dimeric HIV-1 RT (Le Grice et al., supra, 1995) was acquired through the AIDS Research and Reference Reagent Program, Division of AIDS, NIAID, NIH. Purified AMV RT was purchased from Roche Molecular Biochemicals (Mannheim, Germany). The RT assays performed on the purified RTs were carried out as described above, except in the presence of 20 mM KCl, and HIV-1 RT assays were incubated at 37° C. Each reaction contained 45 ng of purified recombinant Ty1 RT or 30 ng of heterodimeric HIV-1 RT.

The target of experiment [1] is T2, Ty1 RT (Saccharomyces cerevisiae, UniProt P47098).
T2 sequence (P47098 1218-1755 limits assumed): T1 sequence (P47098 1218-1755 limits assumed)
Particulars: for Proposed activity of Ty1 RT, same metal at A site and B site: same ion at A site and B site.

The target of experiment [2] is Ty1 RT (Saccharomyces cerevisiae, UniProt P47098, D1428N). Particulars: Mn^2+ at A site, Mg^2+ at B site; unlikely for Wt.
Sequence of Ty1 RT (Saccharomyces cerevisiae, UniProt P47098, D1428N) (P47098 1103-1755 D1428N): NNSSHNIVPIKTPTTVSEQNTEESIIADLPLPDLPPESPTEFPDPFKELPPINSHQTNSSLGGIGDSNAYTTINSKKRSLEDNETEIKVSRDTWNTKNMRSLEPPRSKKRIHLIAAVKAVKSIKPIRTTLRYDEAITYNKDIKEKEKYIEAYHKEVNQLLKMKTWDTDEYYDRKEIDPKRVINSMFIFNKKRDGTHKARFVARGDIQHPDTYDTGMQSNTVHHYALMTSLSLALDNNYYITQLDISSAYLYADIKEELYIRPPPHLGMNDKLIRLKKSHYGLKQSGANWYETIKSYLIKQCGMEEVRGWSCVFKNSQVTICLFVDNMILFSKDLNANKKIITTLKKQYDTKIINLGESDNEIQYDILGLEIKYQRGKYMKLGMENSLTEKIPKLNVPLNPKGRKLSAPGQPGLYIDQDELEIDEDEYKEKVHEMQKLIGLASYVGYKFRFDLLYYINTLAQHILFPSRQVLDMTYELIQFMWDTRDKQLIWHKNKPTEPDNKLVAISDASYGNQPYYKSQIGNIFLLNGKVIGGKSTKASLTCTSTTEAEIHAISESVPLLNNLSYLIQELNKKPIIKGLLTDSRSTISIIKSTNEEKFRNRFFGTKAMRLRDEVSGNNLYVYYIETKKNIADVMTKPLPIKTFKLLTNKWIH
For the next experiment, the target named is hetero-dimeric HIV-1 RT (Human immunodeficiency virus type 1 group M subtype B, UniProt P04585). Particulars: purified hetero-dimeric HIV-1 RT; poly(rC) template; excess Mg^2+; 37° C. Here is the method: as §1, §2
A further experiment relates to AMV RT. The settings on record: purified AMV RT; excess Mg^2+. Here is the method: as §1, §2
The next experiment has as its system M-MuLV RT. The settings on record: purified M-MuLV RT, with or without its associated RNase H. Here is the method: as §1, §2
The next experiment addresses T3, D211N Ty1 RT (Saccharomyces cerevisiae, UniProt P47098, D1428N).
T3 sequence (P47098 1218-1755 D1428N): T1 sequence (P47098 1218-1755 limits assumed) with D211N
As to the kind of experiment: RT assay on purified RT, metal ion competition and metal activation kinetics.
Excerpt: Plasmid constructions. Plasmid c24-2I was generated by ligating the Stu I -Avr II fragment (4.3 kb) of c24-2 with the Sma I—Xba I fragment (6.0 kb) of pRS415 (LEU2 CEN6; Sikorski and Hieter, Genetics 122: 19-27, 1989, which is incorporated herein by reference). To simplify the cloning of the single amino-acid-substitution mutations into the PMR1 gene, c24-2L was constructed by removing the Xho I—Nde I fragment (1.2 kb) from c24-2I, filling in the ends with Klenow (New England Biolabs; Beverly Mass.), and ligating the blunt ends to recircularize the plasmid. Alanine substitution mutations, D778A and Q783A, were generated in the native PMR1 gene by replacing the Pst I—Sal I fragment (1.1 kb) of c24-2L with the corresponding fragment harboring the respective Pmr1p substitution mutation in the YEpHR1 backbone (Wei et al., J. Biol. Chem. 275: 23927-23932, 2000, which is incorporated herein by reference). The D53A substitution mutation was introduced into c24-2L by swapping in the Xba I fragment (0.3 kb) containing the Pmr1p substitution mutation in the YEpHR1 backbone (Wei et al., supra, 1999). Recombinant Ty1 RT (Wilhelm et al., supra, 2000) was PCR amplified and subcloned into the BamH I and Xho I sites of pGEX-4T-3 (Amersham Pharmacia Biotech; Piscataway N.J.). The D211N substitution mutation was generated by replacing the Sph I-Hind III fragment (0.4 kb) of the wild-type Ty1 RT expression construct with that of pJEF724 DD-DN (Uzun and Gabriel, supra, 2001).
as §1, §2

Where [3] appears, read: Wt. Ty1 RT, fit to Hill equation.
The mark [4] stands for this setting: D211N Ty1 RT, fit to Hill equation.

Residue numbers refer to the chain shown, from its start.

Take `[Mn+2]` [Mn^2+, MnCl2]: the “Ratio of Mn^2+ to Mg^2+ that reduced RT activity by 50%” value is on record as 8×10^−3 at Ty1 VLPs (RNA-directed DNA polymerization, poly(rC) template, excess Mg^2+); 1×10^−3 at wild-type Ty1 RT (purified recombinant Ty1 RT, poly(rC) template, excess Mg^2+); 7×10^−4 on hetero-dimeric HIV-1 RT. Further, the “Mn^2+-dependent inhibition with DNA template” value is “Mn^2+-dependent inhibition was also observed” on Ty1 VLPs (poly(dC) substituted for poly(rC)) and “Mn^2+-dependent inhibition was also observed” on wild-type Ty1 RT (purified recombinant Ty1 RT, poly(dC) substituted for poly(rC)). In addition, the Kd at wild-type Ty1 RT came to 19.9 ± 1.6 mM; at D211N Ty1 RT, 0.02 ± 0.003 mM. In addition, the “Proposed divalent cation binding affinity, A site” value at wild-type Ty1 RT (Wt. Ty1 RT) was “very low affinity for Mn^2+”; on D211N Ty1 RT (D211N Ty1 RT) it was “very high affinity for Mn^2+”. For the same compound, the “Proposed divalent cation binding affinity, B site” value at wild-type Ty1 RT (Wt. Ty1 RT) and at D211N Ty1 RT (D211N Ty1 RT) was “high affinity for Mn^2+” throughout. The “kcat of metal activation” value on wild-type Ty1 RT (setting [3]) came to 0.000156 ± 1.9e-05 s⁻¹; on D211N Ty1 RT (setting [4]), 0.000158 ± 8.3e-06 s⁻¹. In addition, the results for the “n (Hill coefficient) of metal activation” value on wild-type Ty1 RT (setting [3]) and at D211N Ty1 RT (setting [4]) were 2.3 ± 0.2 and 2.1 ± 0.1, respectively. In addition, on Ty1 RT [1] (Mn^2+ at B site, Mg^2+ at A site, unlikely for D211N), the “Proposed activity of Ty1 RT, Mg^2+ at A site and Mn^2+ at B site” value is “low”. At Ty1 RT [1], the “Proposed activity of Ty1 RT, same metal at A site and B site” value is “low”. Besides, the “Proposed activity of Ty1 RT, Mn^2+ at A site and Mg^2+ at B site” value on Ty1 RT [2] is “high”. Besides, the “Mn^2+-dependent inhibition of RT activity” value in the experiment on AMV RT is recorded as “Even more dramatic Mn^2+-dependent inhibition”. Besides, the “Effect of Mn^2+ on RT activity” value with M-MuLV RT is recorded as “Increased activity at low Mn^2+ concentrations”. Besides, the “Ratio (Mn^2+ concentration to Mg^2+ concentration) at which the increase in activity peaks” value on D211N Ty1 RT (D211N RT, Mn^2+ added in presence of Mg^2+) is given as 0.02. In addition, the “Inhibition by increasing concentrations of Mn2+” value on D211N Ty1 RT (D211N Ty1 RT, printed: in the presence of excess Mn^2+ (FIG. 4D)) is listed as “not inhibited”.

Regarding `[Ca+2].[Cl-].[Cl-]` [Ca^2+, CaCl2, reference compound], the “Inhibition of Ty1 RT in control competition experiment” value at wild-type Ty1 RT (Ca^2+ substituted for Mn^2+, in presence of Mg^2+ (FIG. 4C)) is “no significant inhibition”.

Consider `[Mg+2]` [Mg^2+, MgCl2], for which the dissociation constant (Kd) at wild-type Ty1 RT is 0.13 ± 0.04 mM; on D211N Ty1 RT, 6.3 ± 0.2 mM. The “Proposed divalent cation binding affinity, A site” value is “very high affinity for Mg^2+” on wild-type Ty1 RT (Wt. Ty1 RT) and “very low affinity for Mg^2+” on D211N Ty1 RT (D211N Ty1 RT). The “Proposed divalent cation binding affinity, B site” value on wild-type Ty1 RT (Wt. Ty1 RT) and at D211N Ty1 RT (D211N Ty1 RT) was “low affinity for Mg^2+” in each case. The “n (Hill coefficient) of metal activation” value on wild-type Ty1 RT (setting [3]) came out at 1.7 ± 0.1; at D211N Ty1 RT (setting [4]), 2.1 ± 0.1. Moreover, the “Proposed activity of Ty1 RT, same metal at A site and B site” value at Ty1 RT [1] was “high”.
